Data published in PMC10038056, “Synthesis, biological evaluation and theoretical studies of (E)-1-(4-sulfamoyl-phenylethyl)-3-arylidene-5-aryl-1H-pyrrol-2(3H)-ones as human carbonic anhydrase inhibitors” (Journal of Enzyme Inhibition and Medicinal Chemistry, 2023).

Key:
hCA I = hCA I (Homo sapiens, UniProt P00915); assay: Stopped-flow CO2 hydrase assay, hCA I
Protocol: (§1) (AAZ), a commonly used sulphonamide inhibitor was used for comparing the inhibition data. The Inhibition effects of these compounds on enzyme activities were evaluated under in-vitro conditions. The CA catalysed CO2 hydration activity was measured using an Applied Photophysics stopped-flow instrument. […] In the same way, the uncatalyzed rates were analysed and deducted from the total measured rates. […] The inhibitor and enzyme solutions were preincubated at room temperature for 15 min prior to the experiment to promote the formation of the E-I complex. By employing nonlinear least-squares methods using PRISM 3 and the Cheng-Prusoff equation, the inhibition constants were determined, as was previously reported[18–20]^,[21] and indicate the average of at least three separate measurements that fall between the range of 5 and 10%.

hCA IX = hCA IX (Homo sapiens, UniProt Q16790); assay: Stopped-flow CO2 hydrase assay, hCA IX
Protocol: as §1

hCA II = hCA II (Homo sapiens, UniProt P00918); assay: Stopped-flow CO2 hydrase assay, hCA II
Protocol: as §1

hCA XII = hCA XII (Homo sapiens, UniProt O43570); assay: Stopped-flow CO2 hydrase assay, hCA XII
Protocol: as §1

[1] = stopped flow, mean from 3 assays, errors 5–10%

Sequence of hCA I (P00915 whole entry): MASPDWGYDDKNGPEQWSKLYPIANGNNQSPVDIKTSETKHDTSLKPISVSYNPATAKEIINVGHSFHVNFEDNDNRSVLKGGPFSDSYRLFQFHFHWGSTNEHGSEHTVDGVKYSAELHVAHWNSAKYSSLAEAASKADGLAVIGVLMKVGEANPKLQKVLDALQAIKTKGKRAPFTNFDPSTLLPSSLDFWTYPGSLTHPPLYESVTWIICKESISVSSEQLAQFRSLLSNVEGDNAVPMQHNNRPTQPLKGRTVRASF
Sequence of hCA XII (O43570 25-354): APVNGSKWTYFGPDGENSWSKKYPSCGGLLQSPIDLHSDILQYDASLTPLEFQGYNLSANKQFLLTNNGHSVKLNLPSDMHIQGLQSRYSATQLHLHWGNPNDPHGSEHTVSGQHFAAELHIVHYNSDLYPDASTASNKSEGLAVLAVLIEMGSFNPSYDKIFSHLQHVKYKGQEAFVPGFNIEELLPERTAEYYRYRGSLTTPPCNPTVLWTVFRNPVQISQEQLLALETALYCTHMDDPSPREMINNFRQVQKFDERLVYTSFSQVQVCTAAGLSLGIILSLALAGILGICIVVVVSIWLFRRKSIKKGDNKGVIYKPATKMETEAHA

Ki (hCA I; [1]) [µM]	Ki (hCA IX) [µM]	melting point [°C]	Ki (hCA II) [µM]	Ki (hCA XII; [1]) [µM]	Ki (hCA I; in µM) [µM]	Ki (hCA XII; in µM) [µM]	Compound
4.25	0.112	214 to 215	1.43	0.0898			NS(=O)(=O)c1ccc(CCN2C(=O)/C(=C/c3ccc(Br)cc3)C=C2c2ccccc2)cc1 [Compound 3d, (E)-4-(2-(3-(4-bromobenzylidene)-2-oxo-5-phenyl-2,3-dihydro-1H-pyrrol-1-yl)ethyl)benzenesulphonamide]
5.09	0.0689	163 to 164	1.89	0.0789			NS(=O)(=O)c1ccc(CCN2C(=O)/C(=C/c3ccc(Cl)cc3)C=C2c2ccc(Cl)cc2)cc1 [Compound 3o, (E)-4-(2-(3-(4-chlorobenzylidene)-5-(4-chlorophenyl)-2-oxo-2,3-dihydro-1H-pyrrol-1-yl)ethyl)benzenesulphonamide]
6	0.418	187 to 188	1.26	0.356			CC(C)(C)c1ccc(C2=C/C(=C\c3ccc(F)cc3)C(=O)N2CCc2ccc(S(N)(=O)=O)cc2)cc1 [Compound 3r, (E)-4-(2-(5-(4-(tert-butyl)phenyl)-3-(4-fluorobenzylidene)-2-oxo-2,3-dihydro-1H-pyrrol-1-yl)ethyl)benzenesulphonamide]
0.634	0.0938	167 to 168	0.368	0.0621			NS(=O)(=O)c1ccc(CCN2C(=O)/C(=C/c3ccccc3)C=C2c2ccccc2)cc1 [Compound 3a, (E)-4-(2-(3-benzylidene-2-oxo-5-phenyl-2,3-dihydro-1H-pyrrol-1-yl)ethyl) benzenesulphonamide]
1.42	0.0413	159 to 160	0.466	0.0391			NS(=O)(=O)c1ccc(CCN2C(=O)/C(=C/c3ccc(F)cc3)C=C2c2ccc(Cl)cc2)cc1 [Compound 3n, (E)-4-(2-(5-(4-chlorophenyl)-3-(4-fluorobenzylidene)-2-oxo-2,3-dihydro-1H-pyrrol-1-yl)ethyl)benzenesulphonamide]
5.93	0.102	186 to 187	1.62	0.0911			CCc1ccc(C2=C/C(=C\c3ccc(Cl)cc3)C(=O)N2CCc2ccc(S(N)(=O)=O)cc2)cc1 [Compound 3k, (E)-4-(2-(3-(4-chlorobenzylidene)-5-(4-ethylphenyl)-2-oxo-2,3-dihydro-1H-pyrrol-1-yl)ethyl)benzenesulphonamide]
2.26	0.0546	189 to 190	0.78	0.0617			NS(=O)(=O)c1ccc(CCN2C(=O)/C(=C/c3ccccc3)C=C2c2ccc(Cl)cc2)cc1 [Compound 3m, (E)-4-(2-(3-benzylidene-5-(4-chlorophenyl)-2-oxo-2,3-dihydro-1H-pyrrol-1-yl)ethyl)benzenesulphonamide]
9.27	0.391	204 to 205	4.69	0.308	9.3		CC(C)(C)c1ccc(C2=C/C(=C\c3ccc(Br)cc3)C(=O)N2CCc2ccc(S(N)(=O)=O)cc2)cc1 [Compound 3t, (E)-4-(2-(3-(4-bromobenzylidene)-5-(4-(tert-butyl)phenyl)-2-oxo-2,3-dihydro-1H-pyrrol-1-yl)ethyl)benzenesulphonamide]
8.5	0.468	183 to 184	1.65	0.396	8.5		CC(C)(C)c1ccc(C2=C/C(=C\c3ccccc3)C(=O)N2CCc2ccc(S(N)(=O)=O)cc2)cc1 [Compound 3q, (E)-4-(2-(3-benzylidene-5-(4-(tert-butyl)phenyl)-2-oxo-2,3-dihydro-1H-pyrrol-1-yl)ethyl)benzenesulphonamide]
4.39	0.0955	224 to 225	0.942	0.0734			Cc1ccc(C2=C/C(=C\c3ccc(Cl)cc3)C(=O)N2CCc2ccc(S(N)(=O)=O)cc2)cc1 [Compound 3g, (E)-4-(2-(3-(4-chlorobenzylidene)-2-oxo-5-(p-tolyl)-2,3-dihydro-1H-pyrrol-1-yl)ethyl)benzenesulphonamide]
6.76	0.0775	188 to 189	3.71	0.0563			CCc1ccc(C2=C/C(=C\c3ccc(Br)cc3)C(=O)N2CCc2ccc(S(N)(=O)=O)cc2)cc1 [Compound 3l, (E)-4-(2-(3-(4-bromobenzylidene)-5-(4-ethylphenyl)-2-oxo-2,3-dihydro-1H-pyrrol-1-yl)ethyl)benzenesulphonamide]
3.2	0.117	189 to 190	0.471	0.0584			Cc1ccc(C2=C/C(=C\c3ccccc3)C(=O)N2CCc2ccc(S(N)(=O)=O)cc2)cc1 [Compound 3e, (E)-4-(2-(3-benzylidene-2-oxo-5-(p-tolyl)-2,3-dihydro-1H-pyrrol-1-yl)ethyl)benzenesulphonamide]
1.79	0.0783	183 to 184	0.901	0.0839			CCc1ccc(C2=C/C(=C\c3ccccc3)C(=O)N2CCc2ccc(S(N)(=O)=O)cc2)cc1 [Compound 3i, (E)-4-(2-(3-benzylidene-5-(4-ethylphenyl)-2-oxo-2,3-dihydro-1H-pyrrol-1-yl)ethyl)benzenesulphonamide]
7.93	0.432	196 to 197	4.36	0.342		0.34	CC(C)(C)c1ccc(C2=C/C(=C\c3ccc(Cl)cc3)C(=O)N2CCc2ccc(S(N)(=O)=O)cc2)cc1 [Compound 3s, (E)-4-(2-(5-(4-(tert-butyl)phenyl)-3-(4-chlorobenzylidene)-2-oxo-2,3-dihydro-1H-pyrrol-1-yl)ethyl)benzenesulphonamide]
3.25	0.108	192 to 193	0.718	0.0765			NS(=O)(=O)c1ccc(CCN2C(=O)/C(=C/c3ccc(Cl)cc3)C=C2c2ccccc2)cc1 [Compound 3c, (E)-4-(2-(3-(4-chlorobenzylidene)-2-oxo-5-phenyl-2,3-dihydro-1H-pyrrol-1-yl)ethyl)benzenesulphonamide]
5.87	0.0743	176 to 177	3.85	0.0854			NS(=O)(=O)c1ccc(CCN2C(=O)/C(=C/c3ccc(Br)cc3)C=C2c2ccc(Cl)cc2)cc1 [Compound 3p, (E)-4-(2-(3-(4-bromobenzylidene)-5-(4-chlorophenyl)-2-oxo-2,3-dihydro-1H-pyrrol-1-yl)ethyl)benzenesulphonamide]
4.19	0.0842	233 to 234	1.87	0.094			Cc1ccc(C2=C/C(=C\c3ccc(Br)cc3)C(=O)N2CCc2ccc(S(N)(=O)=O)cc2)cc1 [Compound 3h, (E)-4-(2-(3-(4-bromobenzylidene)-2-oxo-5-(p-tolyl)-2,3-dihydro-1H-pyrrol-1-yl)ethyl)benzenesulphonamide]
2.53	0.103	196 to 197	0.147	0.0427			Cc1ccc(C2=C/C(=C\c3ccc(F)cc3)C(=O)N2CCc2ccc(S(N)(=O)=O)cc2)cc1 [Compound 3f, (E)-4-(2-(3-(4-fluorobenzylidene)-2-oxo-5-(p-tolyl)-2,3-dihydro-1H-pyrrol-1-yl)ethyl)benzenesulphonamide]
0.836	0.0714	185 to 186	0.296	0.0662			CCc1ccc(C2=C/C(=C\c3ccc(F)cc3)C(=O)N2CCc2ccc(S(N)(=O)=O)cc2)cc1 [Compound 3j, (E)-4-(2-(5-(4-ethylphenyl)-3-(4-fluorobenzylidene)-2-oxo-2,3-dihydro-1H-pyrrol-1-yl)ethyl)benzenesulphonamide]
0.369	0.0727	170 to 171	0.0814	0.0456			NS(=O)(=O)c1ccc(CCN2C(=O)/C(=C/c3ccc(F)cc3)C=C2c2ccccc2)cc1 [Compound 3b, (E)-4-(2-(3-(4-fluorobenzylidene)-2-oxo-5-phenyl-2,3-dihydro-1H-pyrrol-1-yl)ethyl)benzenesulphonamide]
